Measurements: PubChem BioAssay (NCI)
Several values for one entry are separate records, joined by “and”; a condition that tells them apart may be missing. Equal entries are not always repeated.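 How tested: cells in 96-well plates exposed to compound for 48 hours at five concentrations. Abbreviation: GI50, concentration required for 50% inhibition of growth. TGI: concentration producing complete growth inhibition.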

Experiments:
Experiment in all cases: growth of human tumour cells (NCI), 48 h
DU-145 prostate = tested on: DU-145 prostate
OVCAR-8 ovarian = tested on: OVCAR-8 ovarian
UO-31 renal = tested on: UO-31 renal
OVCAR-4 ovarian = tested on: OVCAR-4 ovarian
T-47D breast = tested on: T-47D breast
UACC-62 melanoma = tested on: UACC-62 melanoma
M14 melanoma = tested on: M14 melanoma
SNB-19 CNS = tested on: SNB-19 CNS
EKVX NSCLC = tested on: EKVX NSCLC
OVCAR-5 ovarian = tested on: OVCAR-5 ovarian

Compound	GI50 (DU-145 prostate) [µM]	TGI (DU-145 prostate)	GI50 (OVCAR-8 ovarian) [µM]	TGI (OVCAR-8 ovarian) [µM]	GI50 (UO-31 renal)	TGI (UO-31 renal)	GI50 (OVCAR-4 ovarian) [µM]	TGI (OVCAR-4 ovarian)	GI50 (T-47D breast) [µM]	TGI (T-47D breast)	GI50 (UACC-62 melanoma)	TGI (UACC-62 melanoma)	GI50 (M14 melanoma) [µM]	TGI (M14 melanoma) [µM]	GI50 (SNB-19 CNS) [µM]	TGI (SNB-19 CNS) [µM]	GI50 (EKVX NSCLC) [µM]	TGI (EKVX NSCLC)	GI50 (OVCAR-5 ovarian) [µM]	TGI (OVCAR-5 ovarian) [µM]
COc1cc(C2CC(c3ccc(Nc4ccnc5cc(Cl)ccc45)cc3)=NN2C=O)cc(OC)c1OC (configuration not stated)	6.63	> 100 µM	9.98	> 100	4.96 µM	21.3 µM	3.19	13.3 µM	2.33	7.4 µM	2.2 µM	6.87 µM	3.75	13.9	18.2	> 100	11.7	> 100 µM	69.2	> 100
O=C(Nc1cccc([N+](=O)[O-])c1)c1ccc2ccccc2c1O	7.58	> 100 µM	9.66	> 100	3.35 µM	> 53 µM	4.95	> 100 µM	2.64	> 30.4 µM	4.22 µM	> 100 µM	6.81	> 100	4.05	> 85.4	2.9	> 57.2 µM	20.6	> 100
COc1cc2c3c(n(CCCCNC(=O)OCC4c5ccccc5-c5ccccc54)c(=O)c2cc1OC)-c1cc2c(cc1C3=O)OCO2	8.04	> 100 µM	35	> 100	49.3 µM	> 100 µM	> 100	> 100 µM	95.8	> 100 µM	45.7 µM	> 100 µM	25.9	> 100	81.6	> 100	87.2	> 100 µM	17.4	51
CO/N=C(\COc1ccc2c(c1)oc(=O)c1cc(OC)ccc12)c1cccc(OC)c1	> 100	> 100 µM	> 100	> 100	> 100 µM	> 100 µM	> 100	> 100 µM	> 100	> 100 µM	> 100 µM	> 100 µM	> 100	> 100	> 100	> 100	> 100	> 100 µM	> 100	> 100
Oc1ccc2ccccc2c1C(c1ccc(Cl)cc1)c1c(O)ccc2ccccc12		12.4 µM		19.9		10.6 µM		11.2 µM		12.3 µM		15.1 µM		15.2		19		7.58 µM		12
CC(C)=CCc1ccc(O)c(=O)cc1C(C)C	0.889	> 100 µM	0.413	> 100	0.378 µM	3.92 µM	0.532	> 100 µM	3.29	> 100 µM	0.493 µM	4.38 µM	0.68	3.95	0.735	> 100	0.831	> 100 µM	3.39	> 100
COc1cc(C(=O)N2CCN(c3ccccc3OC)CC2)c(N)cc1OCc1ccccc1	42	> 100 µM	38.3	> 100	22.4 µM	> 100 µM	32.2	> 100 µM	26.2	99.5 µM	26 µM	77.1 µM	39.3	> 100	25.7	> 100	35.7	> 100 µM	80.6	> 100
CCCC(=O)Nc1cc([N+](=O)[O-])c([N+](=O)[O-])cc1OC		31.6 µM		34.2		3.13 µM		33.6 µM		19.4 µM		33.7 µM		25.6		30.7		31.8 µM		> 100
N#CCC12CC=CCC1=C(O)C(=O)c1ccc(O)cc12 (configuration not stated)		> 100 µM		> 100		> 100 µM		> 100 µM		> 100 µM		> 100 µM		> 100		> 100		> 100 µM		> 100
c1ccc2c(Nc3ccc(Oc4ccc(Nc5c6ccccc6nc6ccccc56)cc4)cc3)c3ccccc3nc2c1	0.403	1.25 µM and 0.929 µM		0.526	1.37 µM and 1.19 µM	2.66 µM and 2.6 µM	0.278	0.637 µM and 0.145 µM	0.221	0.51 µM and 2.74 µM	1.54 µM and 0.182 µM	3.02 µM and 0.36 µM		1.05	0.333	1.11	2.5	5.17 µM and 4.63 µM		1.06
Cn1c(=O)c2[nH]c(C3CC(=O)CC(c4nc5c([nH]4)c(=O)n(C)c(=O)n5C)N3)nc2n(C)c1=O (configuration not stated)		> 100 µM		> 100		> 100 µM		> 100 µM		> 100 µM		> 100 µM		> 100		> 100		> 100 µM		> 100
CC1(C)N=C(N)N=C(N)N1c1ccc(OCC(=O)N2CCOCC2)c(Cl)c1	0.994	> 100 µM	7.25	> 100	> 100 µM	> 100 µM	> 100	> 100 µM	> 100	> 100 µM	4.74 µM	> 100 µM	4.19	> 100	19.1	> 100	2.29	> 100 µM	84.4	> 100
CC1CC(C)/C(=N/NC(N)=O)C(C(O)CC2CCC(=O)NC2=O)C1 (configuration not stated)	3.78	52.6 µM	2.71	57.5	2.33 µM	34.3 µM	5.64	> 100 µM	4.41	> 100 µM	2.79 µM	> 100 µM	3.64	> 100	3.73	> 100	2.3	22.6 µM	3.73	86.2
CC(C)(C)c1cn2cccc(C(=O)N3CCN(CC(=O)Nc4ccc(Cl)cc4C(=O)c4ccccc4Cl)CC3)c2n1	11.7	27.5 µM	6.84	77.4	22.4 µM	74.7 µM	7.9	> 100 µM	5.33	> 100 µM	10.7 µM	26 µM	15.4	33.2	15.3	54.8	5.79	66.7 µM	16.1	44.9
COc1cc(Nc2ncc3c(C)nc(-c4cccc(Oc5ccccc5)c4)n3n2)cc(OC)c1OC	3.05	> 25 µM	5.15	> 25	1.39 µM	18.2 µM	4.78	> 25 µM	4.51	17.2 µM	3.3 µM	> 13.8 µM	3.54	19	12.1	> 25	11.2	> 25 µM	11.6	> 25
O=c1oc2ccc(F)cc2c(=O)n1-c1ccc(Cl)cc1F	1.1	22 µM	2.05	26.2	0.264 µM	2.52 µM	0.737	7.68 µM	0.661	5.46 µM	0.33 µM	1.56 µM	0.594	4.55	0.541	> 100	1.61	8.14 µM	3.73	> 100
Oc1ccccc1Nc1nc2ccccc2c2occc12	9.66	21.4 µM	15.4	35.8	5.91 µM	19.6 µM	10.8	31.4 µM	10.1	24.1 µM	10.3 µM	21.9 µM	11.6	23.8	7.22	20.3	11.3	26.2 µM	12.6	25.1
CO/N=C(\COc1ccc2c(c1)oc(=O)c1cc(OC)ccc12)c1ccc(F)cc1	22.8	62.2 µM	26.7	> 100	12.7 µM	32.3 µM	21.2	58.3 µM	25	90.3 µM	21.5 µM	73.9 µM	17.8	45.7	30.4	> 100	35.2	> 100 µM	29.4	83.4
CS(=O)(=O)Nc1cccc(-c2ccc3c(NC(=O)C4CC4)n[nH]c3c2)c1	6.82	> 25 µM	6.26	> 25	24.8 µM	> 25 µM	2.68	> 25 µM	1.2	> 25 µM	1.03 µM	> 25 µM	2.33	> 25	3.64	> 25	> 24.1	> 25 µM	12.7	> 25
O=C(Nc1ccc(Cl)cc1)c1ccc([N+](=O)[O-])o1	3.95	11.4 µM	2.99	12.8	1.38 µM	2.96 µM	2.11	8.31 µM	4.42	23.2 µM	1.46 µM	3.1 µM	1.99	4.28	2.6	10.6	3.02	12.5 µM	2.37	5.41
